Here are results for 5 compounds from patent US20050084500A1, “Growth promoter composition for animals” (priority 2001, published 2005).

The format of data set [1] is in vivo. Conditions: for FCR: feed conversion ratio per trial group; for FCR / Mortality: piglets 7-20 kg; for Mortality: whole trial; for Number of veterinary treatments: sum of all treatments performed on the animals during the total period of the trial; for Daily growth: weaned piglets, 7-20 kg, fed ad libitum. The source says:
The present example relates to the effects of a composition according to the invention comprising a fungus at and least one growth promoting element on piglet performance of piglets in the phase 7-20 kg.
Commercial available weaning and starter feeds were used. During the first 2 weeks, a weaning feed was given to the piglets. From the third week till the end of the trial, i.e. at an average weight of 20 kg, the piglets received a starter feed. The trial feeds used are illustrated in table 2. During the whole trial period the piglets were fed ad libitum. The piglets under study were 120 weaned barrows and sows, with an age of 28 days at weaning. In the stable, 12 pens were present which contained each 10 piglets. For each trial, 3 replicates of 10 piglets were used. Ventilation and heating was automatically controlled. In each pen, 1 drinking nipple was present for water supply. Piglets were distinguished and weighed individually. They were allocated randomly to the different groups so that the average weight of each group was equal. A total of 120 animals was monitored. The following parameters were monitored during the trial: • the feed intake per trial group (measured at the end of the trial) • the weight of the individual animals (was measured at the beginning and at the end of the trial) • the feed conversion ratio per trial group was calculated • veterinary treatments and • mortality.

Data set [2] can be described thus: Influence of Lentinus edodes on the zootechnic performance of poultry (feeding trial). It is filed as in vivo, chickens. Conditions: Lentinus edodes at 0.5% of feed where present; for FCR: feed conversion ratio, chickens, end of trial; for Daily growth: one day old chickens, feed ad libitum. The source says: 20×40 one day old chickens were provided with following feeds: control feed, control feeds supplemented with a growth-promoting component, control feed supplemented with 0.5% fungi (Lentinus edodes) and control feed supplemented with a growth-promoting component and with 0.5% fungi (Lentinus edodes). As used herein, the term “control feed” refers to a standard animal feed for meat-producing animals, i.e. feed that can be used in the animal husbandry field and is suitable to be fed to meat-producing animals to supply part or all of the meat-producing animal's nutrient requirements. Water and feed were supplied ad libitum. At the end of the trial, chickens were weighed and feed conversion ratio's were determined (Table 1). Microbial contents in the gastrointestinal tract were determined by plate counting.

Where two headings read alike, the source gives them in different places.

For inulin [control + inulin], in data set [1], the FCR is 1.78, the Mortality came out at 10%, the “Number of veterinary treatments” value was determined as 32 and the Daily growth is 330 g/pig/day. Further, in data set [2], the FCR was determined as 1.65 and the Daily growth is listed as 51.09 g/chicken/day.
Turning to `OP(O)O` [control + phophorous acid, phophorous acid], in data set [1], the FCR was found to be 1.69, the Mortality amounted to 6.6%, the “Number of veterinary treatments” value is 30 and the Daily growth turned out to be 346 g/pig/day. Besides, in data set [2], the FCR is 1.56 and the Daily growth was found to be 52.23 g/chicken/day.
For the compound `CC[C@@H](C(=O)[C@@H](C)[C@@H](O)[C@H](C)[C@@H]1O[C@@H]([C@@H](CC)C(=O)O)CC[C@@H]1C)[C@H]1O[C@]2(C=C[C@@H](O)[C@]3(CC[C@@](C)([C@H]4CC[C@](O)(CC)[C@H](C)O4)O3)O2)[C@H](C)C[C@@H]1C` [control + Salinomycine, Salinomycine], in data set [1], the FCR was 1.70, the Mortality turned out to be 6.6%, the “Number of veterinary treatments” value was found to be 26 and the Daily growth was 362 g/pig/day. Also, in data set [2], the FCR was determined as 1.60 and the Daily growth is listed as 54.06 g/chicken/day.
For `COC[C@H]1O[C@@H](OC2OC[C@@H]3O[C@]4(O[C@H]3[C@H]2OC(=O)C(C)C)O[C@H](C)[C@@](O)(C(C)=O)[C@@H]2OCO[C@H]24)[C@@H](OC)[C@@H](O)[C@@H]1O[C@@H]1O[C@H](C)[C@H](OC)[C@H](O[C@H]2C[C@@]3(C)OC4(C[C@@H](O)[C@H](O[C@H]5C[C@@H](O)[C@H](OC(=O)c6c(C)c(Cl)c(O)c(Cl)c6OC)[C@@H](C)O5)[C@@H](C)O4)O[C@@H]3[C@@H](C)O2)[C@H]1O` (stereo partly drawn) [control + Avilamycin, Avilamycin], in data set [1], the FCR is given as 1.65, the Mortality turned out to be 3.3%, the “Number of veterinary treatments” value is given as 25 and the Daily growth was 365 g/pig/day. Further, in data set [2], the FCR was determined as 1.59 and the Daily growth amounted to 53.99 g/chicken/day.
In the case of `O=CO` [control + formic acid, formic acid], in data set [1], the FCR worked out at 1.69, the Mortality is reported as 10.0%, the “Number of veterinary treatments” value is 28 and the Daily growth came to 351 g/pig/day. Further, in data set [2], the FCR is on record as 1.55 and the Daily growth turned out to be 52.18 g/chicken/day.
